Source: patent US20200268728A1, “DRUG TARGETING CANCER STEM CELL” (Sumitomo Dainippon Pharma Co., Ltd., priority 2016, published 2020)

Key:
[1] = system: HCT-116 cells; assay: Test for inhibiting sphere-forming ability of cancer cells (Test Example 1); type: cell-based, human; details: Homo sapiens, 96 h, non-adherent serum-free sphere culture, 4 days, CellTiter-Glo, read-out: IC50 (μmol/L), Sphere IC50 value, concentration for 50% inhibition of cell proliferation
Method: The reliable methods established for measuring the self-renewal ability of cells which is one of the CSC's properties include a method for measuring the sphere-forming ability of cancer cells in non-adherent condition in the absence of serum (Cancer Res 65, 5506-5511 (2005)). HCT-116 cells were available from the American Type Culture Collection (ATCC). HCT-116 cells were cultured at 37° C. and 5% CO2 using the McCoy's 5a medium containing 10% fetal bovine serum (FBS), 100 U/ml penicillin, and 100 μg/ml streptomycin. HCT-116 cells were seeded in a 384 Well Black Clear Bottom Ultra-Low Attachment Microplate (Corning Cat. No. 3827) in an amount of 350-800 cells/well using the DMEM/F12 medium containing 2% B27 supplement (GIBCO), 20 ng/mL epidermal growth factor (EGF) (peprotech), 10 ng/mL basic fibroblast growth factor (bFGF) (peprotech), 5 μg/mL insulin (Sigma), and 1% penicillin/streptomycin. The test compounds were added into each well to adjust the final concentration of DMSO to 0.1%, and the cells were cultured for 4 days. The number of viable cells in each well was then measured with CellTiter-Glo® Luminescent Cell Viability Assay (Promega) to calculate the concentration of each test compound for 50% inhibition of cell proliferation (Sphere IC50 value; μmol/L).
The experiment of Test Example 1 was performed for the compounds of each Example.

[2] = system: HT-1080; assay: Sphere-forming ability of cultured cancer cell lines (Test Example 10); type: cell-based; details: Homo sapiens, 96 h; HT-1080 soft tissue tumor cell line, 4 days
Method: (§1) The colon cancer cell lines SW480, DLD1, HCT15, HT29, SW948, LS174T, LS411N, SW620, LoVo, HCT116, Colo205, and Hs698T, the pancreatic cancer cell lines MiaPaca2, HPAFII, Capan2, and Panc1, the head and neck cancer cell line FaDu, the breast cancer cell lines HCC1954 and T47D, the bladder cancer cell line SW780, the liver cancer cell line HepG2, the neuroblastoma cell lines U87MG and U251, the lung cancer cell lines H460, H1437, and A549, the prostate cancer cell lines DU145 and PC3, the soft tissue tumor cell line HT1080, the testicular cancer cell line NTERA2, and the ovarian cancer cell line SKOV3 was suspended in the sphere formation medium (DMEM-F12 medium of Test Example 3 was used), and seeded in a 384-well plate with Ultra-Low Attachment surface (Corning) in an amount of 5×10^3-10×10^3 cells/well. The compound of Example 24 was then added into each well to adjust the final concentration to 10-10000 nmol/L. The plate was cultured at 37° C. and 5% carbon dioxide in an incubator for 4 days. After the culture, CellTiterGlo (Promega) was added into all of the wells, and the plate was allowed to stand at room temperature for 10 minutes to measure the intensity of luminescence of each well. The concentrations of each test compound for 50% inhibition of cell proliferation to the cell lines (Sphere IC50 value; μmol/L) was calculated from the measured intensity of luminescence. When each gene mutation in Table is reported, the mutation is represented by “+” (gene mutation information is cited from the ATCC website (https://www.atcc.org/en/Products/Cells_and_Microorganisms/Cell_Lines/Cell_lines_by_genetic_mutation.aspx), Cancer Cell Line Encyclopedia (https://portals.broadinstitute.org/ccle_legacy/home), Proc. Natl. Acad. Sci. USA 94 (1997) 10330-10334).

[3] = system: NCI-H460; assay: as above; type: cell-based; details: Homo sapiens, 96 h; NCI-H460 lung cancer cell line, 4 days
Method: as §1

[4] = system: SK-OV-3; assay: as above; type: cell-based; details: Homo sapiens, 96 h; SK-OV-3 ovarian cancer cell line, 4 days
Method: as §1

[5] = system: Hs 698.T; assay: as above; type: cell-based; details: 96 h; Hs 698.T colon cancer cell line, 4 days
Method: as §1

[6] = system: NCI-H1437; assay: as above; type: cell-based; details: Homo sapiens, 96 h; NCI-H1437 lung cancer cell line, 4 days
Method: as §1

[7] = system: DU 145; assay: as above; type: cell-based; details: Homo sapiens, 96 h; DU 145 prostate cancer cell line, 4 days
Method: as §1

[8] = system: Capan-2; assay: as above; type: cell-based; details: Homo sapiens, 96 h; Capan-2 pancreatic cancer cell line, 4 days
Method: as §1

[9] = system: HCT-15; assay: as above; type: cell-based; details: Homo sapiens, 96 h; HCT-15 colon cancer cell line, 4 days
Method: as §1

[10] = system: U-251; assay: as above; type: cell-based; details: Homo sapiens, 96 h; U-251 neuroblastoma cell line, 4 days
Method: as §1

[11] = system: HCC1954; assay: as above; type: cell-based; details: Homo sapiens, 96 h; HCC1954 breast cancer cell line, 4 days
Method: as §1

[12] = system: PC-3; assay: as above; type: cell-based; details: Homo sapiens, 96 h; PC-3 prostate cancer cell line, 4 days
Method: as §1

[13] = system: DLD-1; assay: as above; type: cell-based; details: Homo sapiens, 96 h; DLD-1 colon cancer cell line, 4 days
Method: as §1

[14] = system: HPAF-II; assay: as above; type: cell-based; details: Homo sapiens, 96 h; HPAF-II pancreatic cancer cell line, 4 days
Method: as §1

[15] = system: Panc-1; assay: as above; type: cell-based; details: Homo sapiens, 96 h; Panc-1 pancreatic cancer cell line, 4 days
Method: as §1

[16] = system: COLO 205; assay: as above; type: cell-based; details: Homo sapiens, 96 h; COLO 205 colon cancer cell line, 4 days
Method: as §1

[17] = system: MIA PaCa-2; assay: as above; type: cell-based; details: Homo sapiens, 96 h; MIA PaCa-2 pancreatic cancer cell line, 4 days
Method: as §1

[18] = system: SW480; assay: as above; type: cell-based; details: Homo sapiens, 96 h; SW480 colon cancer cell line, 4 days
Method: as §1

[19] = system: HT-29; assay: as above; type: cell-based; details: Homo sapiens, 96 h; HT-29 colon cancer cell line, 4 days
Method: as §1

[20] = system: NTERA-2; assay: as above; type: cell-based; details: NTERA2, 96 h; NTERA-2 testicular cancer cell line, 4 days
Method: as §1

IC50 [1]: < 0.01 µmol/L | IC50 [2]: > 10000 nM | IC50 [3]: 883 nM | IC50 [4]: > 10000 nM | IC50 [5]: > 10000 nM | IC50 [6]: 3880 nM | IC50 [7]: > 10000 nM | IC50 [8]: > 10000 nM | IC50 [9]: 8 nM | IC50 [10]: > 10000 nM | IC50 [11]: 23 nM | IC50 [12]: > 10000 nM | IC50 [13]: 7 nM | IC50 [14]: 764 nM | IC50 [15]: > 10000 nM | IC50 [16]: 142 nM | IC50 [17]: 8 nM | IC50 [18]: 4 nM | IC50 [19]: 9 nM | IC50 [20]: > 10000 nM
Compound: O=C(Nc1cn(Cc2cc(F)c(F)c(F)c2)cn1)c1cnc(CO)c(C(F)F)c1 [Example 24, 5-(difluoromethyl)-6-(hydroxymethyl)-N-[1-(3,4,5-trifluorobenzyl)-1H-imidazol-4-yl]nicotinamide]
